{"source": "ChEMBL document CHEMBL1135481", "about": "“SMall Molecule Growth 2001 (SMoG2001): an improved knowledge-based scoring function for protein-ligand interactions” (J Med Chem, 2002)", "key": {"[1]": {"experiment": "Binding affinity against Histidine-binding protein"}, "[2]": {"biological_target": "Human immunodeficiency virus type 1 protease (Human immunodeficiency virus 1) (UniProt Q72874)", "experiment": "Affinity for HIV Protease"}, "[3]": {"biological_target": "T1, Fatty acid-binding protein, intestinal (Homo sapiens) (UniProt P12104)", "T1 sequence (whole entry)": "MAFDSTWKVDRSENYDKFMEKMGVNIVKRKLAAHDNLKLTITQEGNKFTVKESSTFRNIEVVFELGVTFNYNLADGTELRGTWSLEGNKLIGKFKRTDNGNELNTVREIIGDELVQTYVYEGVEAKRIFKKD", "experiment": "Binding affinity against Fatty acid-binding protein"}, "[4]": {"experiment": "Binding affinity against Endothiapepsin"}, "Trypsin II (Bos taurus)": {"biological_target": "T2, Trypsin II (Bos taurus) (UniProt Q29463)", "T2 sequence (whole entry)": "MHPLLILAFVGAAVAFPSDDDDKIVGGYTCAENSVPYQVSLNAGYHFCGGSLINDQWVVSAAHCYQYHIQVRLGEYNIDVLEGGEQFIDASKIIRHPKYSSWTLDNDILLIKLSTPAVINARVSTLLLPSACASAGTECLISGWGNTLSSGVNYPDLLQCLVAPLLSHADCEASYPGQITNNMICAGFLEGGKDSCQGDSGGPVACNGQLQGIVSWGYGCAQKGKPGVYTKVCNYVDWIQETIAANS", "experiment": "log Kd (Binding affinity against specified protein) value of the compound"}, "[5]": {"biological_target": "Serine protease 1 (Homo sapiens) (UniProt P07477)", "sequence (P07477 whole entry)": "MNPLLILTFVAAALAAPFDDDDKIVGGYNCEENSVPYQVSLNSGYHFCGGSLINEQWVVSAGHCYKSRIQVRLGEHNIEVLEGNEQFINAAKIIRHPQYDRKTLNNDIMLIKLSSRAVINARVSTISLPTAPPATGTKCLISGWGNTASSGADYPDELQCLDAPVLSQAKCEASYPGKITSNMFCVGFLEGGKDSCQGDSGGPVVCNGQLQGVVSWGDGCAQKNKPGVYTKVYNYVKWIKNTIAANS", "experiment": "Binding affinity against trypsin"}, "[6]": {"experiment": "Binding affinity against Neuraminidase"}, "[7]": {"experiment": "Binding affinity against Xylose isomerase"}, "[8]": {"experiment": "Binding affinity against Arabinose binding protein of the compound"}, "[9]": {"experiment": "Binding affinity against Penicillopepsin"}, "[10]": {"experiment": "Binding affinity against enolase"}, "[11]": {"test_system": "Purine nucleoside phosphorylase", "experiment": "Binding affinity against Purine Nucleoside Phosphorylase"}, "[12]": {"experiment": "Binding affinity against Glucoamylase"}, "[13]": {"biological_target": "T3, Thermolysin (Bacillus thermoproteolyticus) (UniProt P00800)", "T3 sequence (whole entry)": "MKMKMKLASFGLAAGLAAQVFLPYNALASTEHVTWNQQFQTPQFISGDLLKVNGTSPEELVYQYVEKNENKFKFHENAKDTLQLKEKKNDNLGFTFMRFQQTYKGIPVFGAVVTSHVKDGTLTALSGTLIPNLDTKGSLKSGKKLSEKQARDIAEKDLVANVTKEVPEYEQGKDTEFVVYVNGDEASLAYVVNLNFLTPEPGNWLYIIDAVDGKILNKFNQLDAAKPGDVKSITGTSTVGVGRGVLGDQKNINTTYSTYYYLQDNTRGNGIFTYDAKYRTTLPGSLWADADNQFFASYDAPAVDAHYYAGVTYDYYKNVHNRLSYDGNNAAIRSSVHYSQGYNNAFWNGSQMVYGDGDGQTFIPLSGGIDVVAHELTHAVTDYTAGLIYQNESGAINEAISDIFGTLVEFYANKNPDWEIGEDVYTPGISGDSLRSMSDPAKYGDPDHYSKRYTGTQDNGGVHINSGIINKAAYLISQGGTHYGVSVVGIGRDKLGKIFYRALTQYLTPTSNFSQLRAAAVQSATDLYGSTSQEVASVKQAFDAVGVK", "experiment": "Binding affinity against Thermolysin"}, "[14]": {"experiment": "Binding affinity against TP isomerase"}}, "note": "Numbered stars: 1 amine (or outer) side, 2 acyl side, 3 side chain; on linkers, the order of the positions; unused ones are H or OH. Square brackets hold non-standard residues; d marks the D form. Peptide text beside a SMILES is read from it. * marks the point of attachment. X1 = CC(C)CC(C[C@H](O)[C@H](CC1CCCCC1)N[*:1])C(=O)[*:2]; Nle = CCCC[C@H](N)C(=O)O; Orn = NCCC[C@H](N)C(=O)O; Boc = CC(C)(C)OC(=O)*", "data": [{"compound": "N[C@@H](Cc1c[nH]cn1)C(=O)O", "values": [{"measurement": "Log Kd", "setting": "[1]", "value": -7.31}]}, {"compound": "CC(C)[C@H](NC(=O)N(C)Cc1ccccn1)C(=O)N[C@@H](Cc1ccccc1)[C@H](O)[C@H](O)[C@H](Cc1ccccc1)NC(=O)[C@@H](NC(=O)N(C)Cc1ccccn1)C(C)C", "values": [{"measurement": "Log Kd", "setting": "[2]", "value": -10.1}]}, {"compound": "CCCCCCCCCCCCCCCC(=O)O", "values": [{"measurement": "Log Kd", "setting": "[3]", "value": -5.43}]}, {"compound": "CC(C)CC(C[C@H](O)[C@H](CC1CCCCC1)NC(=O)[C@H](Cc1c[nH]cn1)NC(=O)[C@H](Cc1ccccc1)NC(=O)OC(C)(C)C)C(=O)N[C@@H](CCCCN)C(=O)N[C@@H](Cc1ccccc1)C(=O)O", "note": "(stereo not given in full) (Boc-FH[X1]KF-OH)", "values": [{"measurement": "Log Kd", "setting": "[4]", "value": -7.11}]}, {"compound": "N=C(N)c1ccccc1", "values": [{"measurement": "Log Kd", "setting": "Trypsin II (Bos taurus)", "value": -1.83}, {"measurement": "Log Kd", "setting": "[5]", "value": -4.74}]}, {"compound": "C[C@@H](O)[C@H](NC(=O)[C@@H]1CCCN1)C(=O)N[C@@H](CCC(=O)O)C(=O)N[C@H](CN[C@@H](Cc1ccccc1)C(=O)N[C@@H](CCCN=C(N)N)C(=O)N[C@@H](CCC(=O)O)C(=O)O)Cc1ccccc1", "values": [{"measurement": "Log Kd", "setting": "[4]", "value": -7.22}]}, {"compound": "CC(=O)N[C@H]1[C@H]([C@H](O)[C@H](O)CO)OC(C(=O)O)=C[C@@H]1O", "values": [{"measurement": "Log Kd", "setting": "[6]", "value": -5.31}]}, {"compound": "OC[C@@H](O)[C@H](O)[C@@H](O)CO", "values": [{"measurement": "Log Kd", "setting": "[7]", "value": -5.83}]}, {"compound": "C[C@H]1OC(O)[C@H](O)[C@@H](O)[C@H]1O", "note": "(stereo not given in full)", "values": [{"measurement": "Log Kd", "setting": "[8]", "value": -5.43}]}, {"compound": "CCOC(=O)CC(O)C(CC(C)C)NC(=O)[C@@H](NC(=O)[C@@H](NC(=O)CC(C)C)C(C)C)C(C)C", "note": "(stereo not given in full)", "values": [{"measurement": "Log Kd", "setting": "[9]", "value": -7.71}]}, {"compound": "CC[C@H](C)[C@H](NC(=O)[C@@H](NC[C@H](CC(C)C)NC(=O)[C@H](Cc1c[nH]cn1)NC(=O)[C@H](Cc1ccccc1)NC(=O)[C@@H]1CCCN1C(=O)[C@H](Cc1c[nH]cn1)NC(=O)[C@@H]1CCCN1)C(C)C)C(=O)N[C@@H](Cc1c[nH]cn1)C(=O)N[C@@H](CCCCN)C(=O)O", "values": [{"measurement": "Log Kd", "setting": "[4]", "value": -6.8}]}, {"compound": "O=C(CP(=O)(O)O)NO", "values": [{"measurement": "Log Kd", "setting": "[10]", "value": -10.8}]}, {"compound": "O=P(O)(O)OP(=O)(O)OP(=O)(O)OP(=O)(O)OC[C@H]1O[C@@H](n2cnc3cncnc32)[C@H](O)[C@@H]1O", "values": [{"measurement": "Log Kd", "setting": "[11]", "value": -5.85}]}, {"compound": "CCCC[C@H](NC(=O)[C@H](CCCC)NC(=O)[C@@H](NC(=O)[C@@H](NC(C)=O)[C@@H](C)O)[C@@H](C)CC)C(=O)N[C@@H](CCCN)C(=O)N[C@@H](CCCN=C(N)N)C(N)=O", "note": "(Ac-TI[Nle][Nle][Orn]R-NH2)", "values": [{"measurement": "Log Kd", "setting": "[2]", "value": -6.11}]}, {"compound": "O=C1N(Cc2ccc3ccccc3c2)[C@H](Cc2ccccc2)[C@H](O)[C@@H](O)[C@@H](Cc2ccccc2)N1Cc1ccc2ccccc2c1", "values": [{"measurement": "Log Kd", "setting": "[2]", "value": -9.52}]}, {"compound": "OC[C@H]1NC[C@H](O)[C@@H](O)[C@@H]1O", "values": [{"measurement": "Log Kd", "setting": "[12]", "value": -4.02}]}, {"compound": "CC1(C)SC(C(NC(=O)Cc2ccccc2)C(=O)NCc2ccccc2)NC1C(=O)NC(CO)Cc1ccccc1", "note": "(stereo not given)", "values": [{"measurement": "Log Kd", "setting": "[2]", "value": -8.1}]}, {"compound": "CC(C)CN(C[C@@H](O)[C@H](Cc1ccccc1)NC(=O)O[C@H]1CCOC1)S(=O)(=O)c1ccc(N)cc1", "values": [{"measurement": "Log Kd", "setting": "[2]", "value": -9.23}]}, {"compound": "CC(C)[C@H](N)C(=O)N[C@@H](Cc1c[nH]c2ccccc12)C(=O)O", "note": "(H-Val-Trp-OH)", "values": [{"measurement": "Log Kd", "setting": "[13]", "value": -5.91}]}, {"compound": "CC(C)[C@H](NC(=O)N(C)Cc1ccccn1)C(=O)N[C@@H](Cc1ccccc1)C[C@@H](O)[C@H](Cc1ccccc1)NC(=O)[C@@H](NC(=O)N(C)Cc1ccccn1)C(C)C", "values": [{"measurement": "Log Kd", "setting": "[2]", "value": -10.5}]}, {"compound": "CC(C)C[C@H](NC(=O)C[C@H](O)[C@H](CC1CCCCC1)NC(=O)CC[C@H](O)[C@H](Cc1ccccc1)NC(=O)OC(C)(C)C)C(=O)NCc1cccc(CN)c1", "values": [{"measurement": "Log Kd", "setting": "[4]", "value": -4.8}]}, {"compound": "CC(C)[C@H](NC(=O)N(C)Cc1ccccn1)C(=O)N[C@@H](Cc1ccccc1)C(O)C(O)[C@H](Cc1ccccc1)NC(=O)[C@@H](NC(=O)N(C)Cc1ccccn1)C(C)C", "note": "(single isomer, unassigned)", "values": [{"measurement": "Log Kd", "setting": "[2]", "value": -10.1}]}, {"compound": "O=C(O)COP(=O)(O)O", "values": [{"measurement": "Log Kd", "setting": "[14]", "value": -4.82}]}, {"compound": "CC1(C)SC(C(NC(=O)Cc2ccccc2)C(=O)NCc2ccccc2)NC1C(=O)NC(Cc1ccccc1)C(O)CC(=O)NCC1=NC2C=CC=CC2=N1", "note": "(stereo not given)", "values": [{"measurement": "Log Kd", "setting": "[2]", "value": -9.69}]}]}
